The source of these data is patent US11478466B2, “Small molecule promoting osteoblast differentiation” (Cornell University, priority 2019, dated 2022).

In experiment [1] the test system is MKK3/6. Description: Western blotting of MKK3/6 in BRITER cells. The experiment is classed as cell-based, mouse. The method, then:
Cells were maintained in DMEM with 10% FBS. For analysis of DIPQUO effects independent of BMP signaling, BMP-2 and BMP-4 knockdown was achieved by treating cells overnight with 1 μM 4-hydroxytamoxifen (4-OHT), followed by continued maintenance in 1 μM 4-OHT. Cells were serum-starved for at least 6 hours before treatment with recombinant BMP protein or DIPQUO as noted in figure legends.
Whole cell extracts were collected from C2C12 or BRITER cells in complete lysis buffer (20 mM Tris, 150 mM NaCl, 50 mM NaF, 1% NP40 substitute, HALT protease inhibitor cocktail (ThermoScientific). Proteins were resolved by electrophoresis on pre-cast 10% NuPage Bis-Tris gels (Invitrogen) and transferred to PVDF membranes (Bio-Rad). Membranes were blocked in 5% BSA-TBS-0.5% Tween-20 for 15 minutes, then incubated at 4° overnight with primary antibodies. Antibodies used were: rabbit anti-phospho-p38 MAPK (cat. no. 9211), anti-p38 MAPK XP (8690), anti-phospho-SMAD1/5 (9516), anti-SMAD1 XP (6944), anti-phospho-SMAD2/3 (8828), anti-SMAD2/3 XP (8685), anti-phospho-JNK (4668), anti-SAPK/JNK (9252), anti-phospho-Akt XP (4060), pan anti-Akt (4691), anti-phospho ERK p42/p44 (4377), anti-ERK p42/p44 (9102), anti-phospho-MKK3/6 (12280), anti-MKK3 (8535), anti-phospho-TAK1 (4531), anti-TAK1 (5206), anti-HA (3274), and anti-FLAG (14793); all from Cell Signaling); and mouse anti-p38α (cat. no. […]
In general terms: In western blotting, separated proteins are transferred to a membrane and probed.

Experiment [2] has as its system PI3K/Akt, ERK, TGF-β/SMAD2/3, BMP/SMAD1/5/9. The experiment in a line: Western blotting of other signaling effectors in C2C12 cells. In kind it is cell-based, mouse. The procedure: Whole cell extracts were collected from C2C12 or BRITER cells in complete lysis buffer (20 mM Tris, 150 mM NaCl, 50 mM NaF, 1% NP40 substitute, HALT protease inhibitor cocktail (ThermoScientific). Proteins were resolved by electrophoresis on pre-cast 10% NuPage Bis-Tris gels (Invitrogen) and transferred to PVDF membranes (Bio-Rad). Membranes were blocked in 5% BSA-TBS-0.5% Tween-20 for 15 minutes, then incubated at 4° overnight with primary antibodies. Antibodies used were: rabbit anti-phospho-p38 MAPK (cat. no. 9211), anti-p38 MAPK XP (8690), anti-phospho-SMAD1/5 (9516), anti-SMAD1 XP (6944), anti-phospho-SMAD2/3 (8828), anti-SMAD2/3 XP (8685), anti-phospho-JNK (4668), anti-SAPK/JNK (9252), anti-phospho-Akt XP (4060), pan anti-Akt (4691), anti-phospho ERK p42/p44 (4377), anti-ERK p42/p44 (9102), anti-phospho-MKK3/6 (12280), anti-MKK3 (8535), anti-phospho-TAK1 (4531), anti-TAK1 (5206), anti-HA (3274), and anti-FLAG (14793); all from Cell Signaling); and mouse anti-p38α (cat. no. 33-1300), anti-p38β (33-8700; both ThermoFisher) and anti-β-actin (Sigma A1978). Proteins were visualized with HRP-conjugated secondary antibodies (Bio-Rad) with WestPico (ThermoFisher) or Immobilon (Millipore) chemiluminescence reagents. Images were obtained and analyzed for relative densitometric relationships on a LI-COR C-DiGit scanner using Image Studio software.

The subject of experiment [3] is p38-β. Description: Isoform-specific immunoprecipitation, p38-β activity in C2C12 cells. The experiment is classed as cell-based, mouse. The settings on record: C2C12, 10 μM DIPQUO. From the text:
There are four separate p38 isoforms: α, β, γ, and δ. The respective roles of the α and β isoforms in bone differentiation have been dissected to the extent that p38-β is known to be involved specifically in skeletogenesis (Greenblatt et al., 2010), while p38-α has roles that are both wide-ranging and highly specific, for instance in dentition (Greenblatt et al., 2015). Accordingly, we used small interfering RNA-mediated knockdown to probe the specificity of DIPQUO to block the activity of one or the other isoform (FIG. 6E). […] To confirm the biological significance of this observation, the α and β isoforms were immunoprecipitated from C2C12 cells and analyzed for relative activity levels.

Experiment [4] concerns AP-1 response element. Description: AP-1 response element luciferase reporter assay. In kind it is cell-based. The settings on record: 293T HEK cells, 7 hours, various concentrations. The procedure:
For AP-1 reporter assays, 293T HEK cells were seeded at 0.25×10^6 cells/well of a gelatin-coated 24-well plate one day before transfection. Plasmid transfections were performed using Lipofectamine LTX (Invitrogen) according to manufacturer's protocol. Briefly, 293T HEK cells were co-transfected with pGL4.44 AP1 [luc2P/AP1 RE/Hygro] reporter plasmid (Promega) and SV40Renilla plasmid as a transfection control. 24 hours after transfection, cells were incubated in serum free DMEM media for 24 hours. The following day, cells were treated with 10 ng/ml PMA (Phorbol 12-myristate 13-acetate; Tocris) or indicated concentration of DIPQUO in serum free DMEM for 7 hours prior to lysis with 1× Passive Lysis buffer (Promega). Luciferase expression was measured using Dual-Glo Luciferase Assay (Promega).
On the technique in general: In a reporter assay the amount or activity of a reporter protein is the signal.

For experiment [5], the system named is adult zebrafish. Description: Adult zebrafish caudal fin regeneration model. In kind it is in vivo, Danio rerio. The settings on record: 15 μM in tank water, 26 h regeneration at 32° C., vs DMSO. From the text: We next tested the regenerative capabilities of zebrafish, which have a robust capacity to replace and renew organs and tissues derived from all three germ layers. Regenerating fin joints are reported to constitute a pre-osteoblast niche from which OSX-expressing (Sp7+) osteoblasts radiate de novo (Ando et al., 2017). Simultaneously, osteoblasts and osteogenic hypertrophic chondrocytes in both early and later stages of differentiation express collagen10 (col10a1) (Huycke et al., 2012).
Animals studies were performed according to protocols approved by the WCMC IACUC. Wildtype (AB/TU hybrid) zebrafish were maintained at 28.5° C. Larval fish were treated from 7 dpf to 8 dpf in tank water with DMSO or with a 24-hour pulse of 15 μM DIPQUO or inert analog BT344 or BT345, and were fixed at 9 dpf in 4% paraformaldehyde overnight rocking at 4° C. Fixed larvae were washed in PBS-0.1% Tween-20 (PBST), followed by 50% ethanol/50% PBST. Larvae were transferred to staining solution (66.5% ethanol, 100 mM MgCl2, 0.02% alizarin red) and incubated for 40 hours, rocking at room temperature in the dark. Larvae were washed in H2O+0.1% Tween-20, and excess stain removed by bleaching for approximately 10 minutes in the dark with a 1:1 mixture of 3% […] and 2% KOH. […] Images were acquired on a Zeiss LSM 800 confocal microscope and Sp7^+/col10a1^+ cells quantified using ImageJ.

Consider `Cc1cc(C)c2[nH]c(=O)c(-c3[nH]cnc3-c3ccccc3)cc2c1` [RU-0226606, 6,8-dimethyl-3-(4-phenyl-1H-imidazol-5-yl)quinolin-2(1H)-one], for which the “phosphorylation of MKK3/6” value in experiment [1] is listed as “stimulated rapid phosphorylation of MKK3/6”. Further, the “other pathways (PI3K/Akt, ERK, TGF-β/SMAD2/3, BMP/SMAD1/5/9)” value in experiment [2] is reported as “no change observed”. Moreover, the “p38-β isoform activity after immunoprecipitation” value in experiment [3] is reported as “significantly activated”. Further, the “AP-1 response element luciferase reporter activation” value in experiment [4] is “Neither did DIPQUO stimulate activation”. Moreover, the “number of Sp7+/Col10a1+ cells emanating from new fin ray joints” value in experiment [5] is reported as “significantly increased”.
